Experimental data published in patent publication US10752626B2, “Iso-citrate dehydrogenase (IDH) inhibitor” (SHANGHAI METON PHARMACEUTICAL CO., LTD, priority 2016, dated 2020).

Key:
IDH1 R132H = IDH1 R132H (Homo sapiens (Human), UniProt O75874, R132H); experiment: Biochemical assay for inhibition of mutant IDH1 R132H; conditions: tested in triplet
From the text: (§1) The present disclosure provides a biochemical assay method for detecting the IDH inhibition and selectivity of the compounds by detecting IDH enzyme activity directly.
(§2) Wild-type IDH enzyme could convert NADP^+ to NADPH when it catalyzes the α-KG producing reaction. Mutant IDH enzyme could convert NADPH to NADP^+ when it catalyzes the D-2-HG producing reaction. So the activity of wild-type and mutant IDH1/2 could be measured by monitoring NADPH level change: in the reaction catalyzed by wild-type IDH1/2, the newly generated NADPH is utilized instantly by coupled diaphorase-resazurin reaction to generate resorufin which is fluorescent (at Excitation 544 nm, Emission 590 nm) and thus NADPH is monitored indirectly; while in the reaction catalyzed by mutant IDH1/2, NADPH is directly monitored as it is fluorescent (at Excitation 340 nm, Emission 460 nm). By monitoring the change of NADPH level in the reaction, the enzyme activity could be determined rapidly and efficiently, IC50 of a compound could also be assayed.
(§3) The test compounds were prepared into 50 mM stock solutions in DMSO and stored at −20° C. Each test compound stock was further diluted to obtain a 100× stock solution at a concentration of 200 μM, 100 μM, 50 μM, 25 μM, 12.5 jμM, 6.25 μM and 3.125 μM, respectively, for the final use on the day of test.
(§4) Inhibition of Mutant IDHJ (R132H or R132C):
(§5) Solution A was prepared by combining 1 M Tris-HCl pH7.5 (300 μL), 5 M NaCl (450 μL), 1 M MgCl2 (150 μL), 1 M DTT (15 μL), 20 mg/mL BSA (37.5 μL), 20 mM NADPH (20 μL), and 0.5 mM α-KG (40 μL), followed by adding deionized water to a final volume of 15 mL.
(§6) Reaction buffer was prepared by combining 1 M Tris-HCl pH 7.5 (200 μL), 5 M NaCl (300 μL), 1 M MgCl2 (100 μL), 1 M DTT (10 μL) and 20 mg/mL BSA (25 μL), followed by adding deionized water to a final volume of 10 mL.
(§7) Solution B was prepared by combining the reaction buffer (5 mL) and […] IDH1-R132H (5.21 μL) or 107 μM IDH1-R132C (4.67 μL).
(§8) 148 μL Solution A was added into each sample well of a 96-well plate P1, and then 2 μL of the test compound solution at each concentration and 2 μL of DMSO (negative control/blank) were added into individual sample well respectively. 50 μL of Solution B was added into each of the sample wells having test compounds and one sample well having DMSO only, and 50 μL of reaction buffer was added into another sample well having DMSO only, respectively. P1 was put into BioTek Synergy H4 Microplate reader (BioTek Instruments Inc., Winooski, U.S.), and the program was set as follows: 37° C., shake plate 5 seconds, run kinetic mode, total detection time 20 min, detection intervals 40 seconds, detection mode fluorescence (at Excitation 340 nm, Emission 460 nm). The data were exported, the relative enzyme activity and the half-maximal inhibitory concentration (IC50) for the test compound were calculated. Relative enzyme activity was calculated as the absolute value of the slope of the Emission 460 reads of each well plotted against time (which represents the conversion rate of ca-KG to 2-HG through IDH1 modulated utilization of NADPH). The Dose-response curve was drawn and the IC50 was calculated via fitting. The IDH inhibition and selectivity of each test compound can be evaluated according to the effect of the compounds on the IDH enzyme activity.
(§9) The IDH inhibition activity of the compounds were assessed according to Test 5 of the Biological evaluation section. The test for mutant IDH1 R132H/R132C inhibition of each compound was carried out in triplet. For IDH1 R132H, the enzyme activity of exemplary Compounds 16, 21, 22, 23, 24 and 31 is plotted as a function of logarithm of the concentration of the compound in FIGS. 8A-8C, 9A-9C, 10A-10C, 11A-11C, 12A-12C and 13A-13C, respectively. […]

IDH1 R132C [1] = target: T1, IDH1 R132C (Homo sapiens (Human), UniProt O75874, R132C); experiment: Improved cell-based assay: D-2-HG in HT1080 cells over-expressing D-2-HG dehydrogenase; conditions: 12 h
From the text: The present disclosure also provides a cell based method for assaying IDH inhibition and selectivity of the compounds in human fibrosacoma cell line HT1080 and cholangiocarcinoma cell line HCCC 9810, which harbor endogenous heterozygous IDH1 R132C and R132H mutation respectively and accumulate D-2-HG Tumor derived IDH mutant lost its normal activity of producing α-KG and gained a new activity of producing D-2-HG D-2-HG is a metabolite specifically elevated in IDH mutated tumor samples.
By treating HT1080 and HCCC 9810 cells with an effective IDH inhibitor, the synthesis of D-2-HG is blocked, and D-2-HG concentration is decreased by the oxidation reaction catalyzed by D-2-HG dehydrogenase.
To perform a cell based IDH inhibitor assay, HT1080 and HCCC 9810 cells (or other cell lines harboring different IDH mutations) are cultured in DMEM supplemented with 10% FBS. The cells are treated with compounds of present disclosure at various different concentration. At various time points (between 4-24 hours) after the treatment, cell culture supernatants were removed and cells were washed with PBS for one or two times. Cell metabolites are extracted by adding 80% methanol (pre-chilled under −80° C.) in the cells, extract at 4° C. temperature for 60 min, centrifuged to remove any insoluble component. Metabolites (clear supernatant from the previous step) are lyophilized and reconstituted in pyridine containing 20 mg/ml O-methoxyamineHCl and are incubated at 70° C. for 40 minutes. After cooling down to room temperature, MTBSTFA (N-tert-Butyldimethylsilyl-N-methyltrifluoroacetamide, Sigma Aldrich) is added at a volume ratio of 4:7 (e.g., 20 μL MTBSTFA to 35 μL 20 mg/ml O-methoxyamineHCl solution) and derivation is performed at 70° C. for 30 minutes. The derived metabolites including D-2-HG are analyzed by Agilent 7890A-5750 GC/MS system. […] of the derived metabolite is injected into Agilent 7890A-5750 for D-2-HG concentration analysis. GC oven temperature is programmed from 140° C. to 260° C. at 10° C./min, from 260° C. to 310° C. at 8° C./min and hold at 310° C. for 5 min. The flow rate of carrier gas is 1 ml/min. The mass spectrometer is operated in the electron impact (EI) mode at 70 eV D-2-HG is normalized to endogenous glutamate.
The activity of IDHs in the presence of each compounds at different concentrations can be represented by relative D-2-HG concentration to negative control samples, and the IC50 value, the inhibition and selectivity for each compound can be evaluated.
The present disclosure also provides an improved cell-based assay for IDH inhibition and selectivity of the compounds, which involves stably over-expressing D-2-HG dehydrogenase in HT1080 and HCCC 9810 cells.
According to previous report, over expression of D-2-HG dehydrogenase decreases the half-life of D-2-HG in HT1080 cells (FIGS. 2A and 2B) [“D-2-hydroxyglutarate is essential for maintaining oncogenic property of mutant IDH-containing cancer cells but dispensable for cell growth”, Ma, S., et al., Oncotarget, (2015)], making the cells more sensitive to D-2-HG synthesis blockage by mutant IDH1 inhibitors. It will greatly increase the sensitivity and accurateness of this cell based assay. In the improved cell-based assay, all other steps are performed as disclosed in Test 6.
The D-2-HG inhibition activity of compounds was also assessed in the improved cell-based assay according to the method disclosed in Test 7 of the Biological evaluation section. HT1080 cells over-expressing D-2-HG dehydrogenase were cultured in 35 mm plate and treated with each of Compounds 1-37 at a concentration of 0.5 μM, 1 μM, 2.5 μM and 5 μM for 12 h, respectively, and the D-2-HG concentration was analysed. The inhibition ratio of D-2-HG in HT1080 cell by the exemplary Compounds 16, 21-24 and 31 at different concentrations were shown in Table 10.
Target sequence in this assay (O75874 2-414 R132C): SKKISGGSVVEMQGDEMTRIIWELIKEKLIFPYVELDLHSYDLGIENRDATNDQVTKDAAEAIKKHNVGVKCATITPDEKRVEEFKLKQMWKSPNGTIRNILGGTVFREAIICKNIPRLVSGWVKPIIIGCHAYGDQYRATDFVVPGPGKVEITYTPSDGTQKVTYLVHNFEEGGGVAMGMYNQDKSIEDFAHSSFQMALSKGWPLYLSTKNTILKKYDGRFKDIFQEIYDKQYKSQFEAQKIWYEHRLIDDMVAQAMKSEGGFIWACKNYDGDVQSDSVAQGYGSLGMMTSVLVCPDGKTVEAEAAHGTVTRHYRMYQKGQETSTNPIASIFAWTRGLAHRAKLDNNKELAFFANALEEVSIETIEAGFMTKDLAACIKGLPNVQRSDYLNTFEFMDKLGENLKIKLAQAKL

IDH1 R132C [2] = target: T1, IDH1 R132C; experiment: Biochemical assay for inhibition of mutant IDH1 R132C; conditions: tested in triplet
From the text: as §1, §2, §3, §4, §5, §6, §7, §8, §9
Target sequence in this assay (O75874 whole entry R132C): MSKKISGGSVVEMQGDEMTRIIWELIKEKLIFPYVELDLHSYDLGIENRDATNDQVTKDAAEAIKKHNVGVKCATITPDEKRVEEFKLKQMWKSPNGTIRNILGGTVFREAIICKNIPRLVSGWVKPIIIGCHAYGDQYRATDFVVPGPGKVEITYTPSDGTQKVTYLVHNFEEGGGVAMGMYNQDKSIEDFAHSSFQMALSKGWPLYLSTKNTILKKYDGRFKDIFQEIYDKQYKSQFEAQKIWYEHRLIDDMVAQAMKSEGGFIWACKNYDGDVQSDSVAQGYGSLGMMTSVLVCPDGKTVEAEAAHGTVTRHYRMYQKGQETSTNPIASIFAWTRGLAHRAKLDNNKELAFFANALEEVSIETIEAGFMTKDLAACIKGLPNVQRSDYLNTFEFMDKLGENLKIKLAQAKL

IDH1 R132H, sequence (O75874 whole entry R132H): as the sequence (O75874 whole entry R132C) above, with C132H counted along it

SMILES	IC50 (IDH1 R132H)	Inhibition ratio of D-2-HG in HT1080 cell (IDH1 R132C [1]; 0.5 μM)	Inhibition ratio of D-2-HG in HT1080 cell (IDH1 R132C [1]; 1 μM)	Inhibition ratio of D-2-HG in HT1080 cell (IDH1 R132C [1]; 2.5 μM)	Inhibition ratio of D-2-HG in HT1080 cell (IDH1 R132C [1]; 5 μM)	IC50 (IDH1 R132C [2])
CCN1Cc2c(ccnc2N[C@@H](C)c2ccc(Oc3ccccc3F)cc2)C1=O [Compound 22, (S)-2-ethyl-4-((1-(4-(2-fluorophenoxy)phenyl)ethyl)amino)-2,3-dihydro-1H-pyrrolo[3,4-c]pyridin-1-one]	< 1000 nM	36.3%	53.3%	72.3%	87.8%	< 1500 nM
CCN1Cc2c(ccnc2N[C@@H](C)c2ccc(Oc3cccc(F)c3)cc2)C1=O [Compound 21, (S)-2-ethyl-4-((1-(4-(3-fluorophenoxy)phenyl)ethyl)amino)-2,3-dihydro-1H-pyrrolo[3,4-c]pyridin-1-one]	< 1000 nM	20.2%	18.7%	43.1%	76.1%	< 1500 nM
CCN1Cc2c(ccnc2N[C@@H](C)c2ccc(Oc3ccc(C)cc3)c(F)c2)C1=O [Compound 24, (S)-2-ethyl-4-((1-(3-fluoro-4-(p-tolyloxy)phenyl)ethyl)amino)-2,3-dihydro-1H-pyrrolo[3,4-c]pyridin-1-one]	< 1000 nM	45.5%	54.6%	72.1%	92.1%	< 1500 nM
Cc1ccc(Oc2ccc([C@H](C)Nc3nccc4c3CN(C(C)C)C4=O)cc2)cc1 [Compound 31, (S)-2-isopropyl-4-((1-(4-(p-tolyloxy)phenyl)ethyl)amino)-2,3-dihydro-1H-pyrrolo[3,4-c]pyridin-1-one]	< 1000 nM	36.9%	57.8%	68.7%	89.1%	< 1500 nM
